Earlier results in patent publication US11957779B2, “Agent for dyeing keratinous material, containing aminosilicone, pigment and polysaccharide” (Henkel AG & Co. KGaA, priority 2019, dated 2024).

Experiments:
[1] = 25° C.
[2] = 5% solution in water

Row | Compound | solubility in water [1] | further results
1 | CCN(Cc1cccc(S(=O)(=O)[O-])c1)c1ccc(C(=C2C=CC(=[N+](CC)Cc3cccc(S(=O)(=O)[O-])c3)C=C2)c2ccccc2S(=O)(=O)[O-])cc1.[Na+].[Na+] [Acid Blue 9] | more than 20 wt. % | –
2 | O=S(=O)([O-])c1ccc(N=Nc2c(O)ccc3ccccc23)cc1.[Na+] [Acid Orange 7, sodium salt of 4-[(2-hydroxy-1-naphthyl)azo]benzene sulphonate] | more than 7 g/L | –
3 | Nc1cc(S(=O)(=O)[O-])cc2cc(S(=O)(=O)[O-])c(N=Nc3ccccc3)c(O)c12.[Na+].[Na+] [Acid Red 33, diantrium salt of 5-amino-4-hydroxy-3-(phenylazo)-naphthalene-2,7-disulphonate] | 2500 µg/mL | –
4 | O=C([O-])c1c(Cl)c(Cl)c(Cl)c(Cl)c1-c1c2c(Br)cc(=O)c(Br)c-2oc2c(Br)c(O)cc(Br)c12.O=C([O-])c1c(Cl)c(Cl)c(Cl)c(Cl)c1-c1c2c(Br)cc(=O)c(Br)c-2oc2c(Br)c(O)cc(Br)c12.[Na+].[Na+] [Acid Red 92, disodium salt of 3,4,5,6-tetrachloro-2-(1,4,5,8-tetrabromo-6-hydroxy-3-oxoxanthen-9-yl)benzoic acid] | greater than 10 g/L | –
5 | O=C([O-])C1=NN(c2ccc(S(=O)(=O)[O-])cc2)C(=O)C1N=Nc1ccc(S(=O)(=O)[O-])cc1.[Na+].[Na+].[Na+] (stereo not drawn) [Acid Yellow 23, trisodium salt of 4,5-dihydro-5-oxo-1-(4-sulfophenyl)-4-((4-sulfophenyl)azo)-1H-pyrazole-3-carboxylic acid] | – | solubility in water (in words) [1]: highly soluble
6 | O=P([O-])(O)O.[K+] [Potassium dihydrogen phosphate] | – | pH value [2]: about 4.4
